Measurements taken from US20250264461A1, “NANOVESICLE COMPRISING HETERODIMERIC G-PROTEIN COUPLED RECEPTOR, METHOD FOR PREPARING NANOVESICLE, FIELD EFFECT TRANSISTOR-BASED TASTE SENSOR COMPRISING NANOVESICLE, AND METHOD FOR MANUFACTURING TASTE SENSOR” (Seoul National University R&DB Foundation, priority 2013, published 2025).
Peptide text beside a SMILES is read from it.

Assays:
[1] = target: T1, sweet taste substance receptor protein (hTAS1R2 and hTAS1R3) (Homo sapiens, UniProt Q7RTX0+Q8TE23); test: nanovesicle based field effect transistor taste sensor, real-time source-drain current / conductance; format: biochemical; settings: for signal change: 100 mM added
T1 construct: HA (N); expressed in transfected cells
T1 sequence (Q8TE23 20-839): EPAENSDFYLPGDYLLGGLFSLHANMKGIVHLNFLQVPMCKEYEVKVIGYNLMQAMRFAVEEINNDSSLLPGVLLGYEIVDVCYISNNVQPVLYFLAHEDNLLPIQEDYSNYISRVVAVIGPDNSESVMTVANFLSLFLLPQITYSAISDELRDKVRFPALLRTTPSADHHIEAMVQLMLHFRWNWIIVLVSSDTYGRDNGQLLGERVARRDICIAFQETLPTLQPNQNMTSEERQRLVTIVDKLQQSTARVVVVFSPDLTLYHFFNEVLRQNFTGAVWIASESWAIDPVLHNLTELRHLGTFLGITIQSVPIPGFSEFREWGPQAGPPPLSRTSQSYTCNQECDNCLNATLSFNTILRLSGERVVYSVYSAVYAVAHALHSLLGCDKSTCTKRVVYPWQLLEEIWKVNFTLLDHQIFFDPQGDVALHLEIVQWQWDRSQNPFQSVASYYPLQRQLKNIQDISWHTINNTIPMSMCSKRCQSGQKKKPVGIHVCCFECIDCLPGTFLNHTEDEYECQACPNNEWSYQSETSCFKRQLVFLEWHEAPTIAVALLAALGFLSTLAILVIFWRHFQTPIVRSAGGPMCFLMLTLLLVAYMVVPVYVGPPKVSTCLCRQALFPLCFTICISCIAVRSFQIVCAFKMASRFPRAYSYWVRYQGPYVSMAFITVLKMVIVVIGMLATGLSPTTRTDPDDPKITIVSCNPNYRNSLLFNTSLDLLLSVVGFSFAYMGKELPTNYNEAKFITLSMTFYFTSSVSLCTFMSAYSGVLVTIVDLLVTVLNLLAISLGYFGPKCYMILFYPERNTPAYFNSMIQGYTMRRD
T1 sequence (Q7RTX0 21-852): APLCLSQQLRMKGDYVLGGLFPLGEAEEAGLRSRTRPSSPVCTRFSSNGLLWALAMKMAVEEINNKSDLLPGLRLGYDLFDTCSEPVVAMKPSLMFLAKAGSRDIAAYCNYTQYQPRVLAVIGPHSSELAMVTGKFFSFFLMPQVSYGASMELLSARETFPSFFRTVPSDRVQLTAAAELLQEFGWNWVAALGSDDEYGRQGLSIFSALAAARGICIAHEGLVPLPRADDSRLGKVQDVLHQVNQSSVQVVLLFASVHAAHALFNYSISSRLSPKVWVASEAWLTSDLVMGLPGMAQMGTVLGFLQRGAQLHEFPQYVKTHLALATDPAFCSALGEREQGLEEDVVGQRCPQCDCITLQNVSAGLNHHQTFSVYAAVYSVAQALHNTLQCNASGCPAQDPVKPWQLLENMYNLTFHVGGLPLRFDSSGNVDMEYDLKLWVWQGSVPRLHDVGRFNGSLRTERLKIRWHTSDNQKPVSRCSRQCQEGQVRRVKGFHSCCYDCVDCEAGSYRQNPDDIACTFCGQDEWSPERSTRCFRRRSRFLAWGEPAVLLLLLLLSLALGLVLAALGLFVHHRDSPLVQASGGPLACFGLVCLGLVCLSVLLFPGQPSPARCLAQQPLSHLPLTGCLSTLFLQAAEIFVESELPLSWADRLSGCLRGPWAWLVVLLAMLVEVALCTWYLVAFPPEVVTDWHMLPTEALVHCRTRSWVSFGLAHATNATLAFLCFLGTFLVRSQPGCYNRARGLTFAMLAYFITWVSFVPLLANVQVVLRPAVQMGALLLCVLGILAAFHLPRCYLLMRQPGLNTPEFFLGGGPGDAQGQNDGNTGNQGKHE

[2] = target: T1, sweet taste substance receptor protein (hTAS1R2 and hTAS1R3); test: as above; format: biochemical; settings: for signal generating from the taste sensor (sensitivity ΔG/G0): FIG. 3C; for fit of sensor signals to the hill equation model: FIG. 4C
Protocol: A sweet taste substance (Sigma Aldrich, USA) with a 1 mM concentration was dissolved into PBS (phosphate buffered saline; Gibco, USA) containing 2 mM CaCl2 therein. The resulting solution was sequentially diluted 1/10 times to acquire a diluent. The diluent was exposed to the nanovesicle based field effect transistor manufactured in the embodiment 2. A current between the source electrode and drain electrode was measured in a real time manner to check a reaction magnitude. A sensitivity ΔG/G0 of a sweet taste substance relative to sucrose in the nanovesicle based field effect transistor was measured in a real time manner.

[3] = target: T2, heterodimeric receptor including the hTAS1R2 and hTAS1R3 (Homo sapiens, UniProt Q7RTX0+Q8TE23); test: Ca2+ dependent fluorescence signal in transformed HEK-293 cell line; format: cell-based; settings: 10 mM sucrose added, Fura 2-AM, ratio of 340/380 nm stimulation, emission 510 nm, FIG. 2C
T2 construct: HA (N); expressed in transfected cells
T2 sequence (Q8TE23 20-839): T1 sequence (Q8TE23 20-839)
T2 sequence (Q7RTX0 21-852): T1 sequence (Q7RTX0 21-852)
Protocol: (§1) A signal transfer via a sweet taste substance of each of the nanovesicle and HEK-293 cell was checked wherein the HEK-293 cell has the expressed heterodimeric receptor including the hTAS1R2 and hTAS1R3 manufactured in the embodiment 1, and the nanovesicle is separated from the HEK-293 cell.
(§2) For this, the transformed HEK-293 cell line was incubated for three or more days. Then, 5 μm Fura 2-AM (acetoxymethyl)(calcium indicator, Invitrogen) was loaded on the cells in an imaging buffer solution (NaCl 140 mM, KCl 5 mM, MgCl2 1 mM, CaCl2 2 mM, HEPES 10 mM, Glucose 10 mM, 0.1% Pluronic F-127, pH 7.4). A non-specific esterase residing in the cell performs hydrolysis for an AM ester group to be changed into a form sensitive to Ca^2+ ions. […]
(§3) After three times cleaning using respective solutions, a ligand and ATP (100 uM) for a Ca^2+ dependent fluorescence signal was injected thereto, and, dual stimulations (340 nm, and 380 nm) were applied thereto. Thereafter, a fluorescence signal due to Ca^2+ at 510 nm was measured using a spectrofluorophotometer. The fluorescence signal was obtained at 2 seconds intervals. A final result was shown as a ratio between fluorescence strengths resulting from the dual stimulations.

[4] = target: T3, nanovesicle including TAS1R2 and TAS1R3 (Homo sapiens, UniProt Q7RTX0+Q8TE23); test: Ca2+ dependent fluorescence signal in nanovesicle separated from transformed HEK-293 cell line; format: biochemical; settings: 10 mM sucrose added, FIG. 2F
T3 construct: HA (N); expressed in transfected cells
T3 sequence (Q8TE23 20-839): T1 sequence (Q8TE23 20-839)
T3 sequence (Q7RTX0 21-852): T1 sequence (Q7RTX0 21-852)
Protocol: as §1, §2, §3

Structure (SMILES): OC[C@H]1O[C@@H](O[C@H]2[C@H](O)[C@@H](O)[C@H](O)O[C@@H]2CO)[C@H](O)[C@@H](O)[C@@H]1O [cellobios]
- signal change ([1]; FIG. 4B): no signal change

Structure (SMILES): OC[C@H]1O[C@@](CO)(O[C@H]2O[C@H](CO)[C@@H](O)[C@H](O)[C@H]2O)[C@@H](O)[C@@H]1O [sucrose]
- signal generating from the taste sensor (sensitivity ΔG/G0) ([2]; 100 uM concentration): decreases
- signal generating from the taste sensor (sensitivity ΔG/G0) ([2]; 500 uM concentration): rapidly decreases
- fit of sensor signals to the hill equation model [2]: comply with the hill equation model
- fluorescence emission strength [3]: relatively increases
- fluorescence emission strength [4]: relatively increases
- reaction magnitude decrease ([1]; 500 uM added, FIG. 4B): about 5%
- detection in real samples ([1]; 1 mM concentration, contained in coffee and Darjeeling tea, FIG. 4D): may be detected

Structure (SMILES): O=C[C@H](O)[C@@H](O)[C@H](O)[C@H](O)C(=O)O [D-glucuronic acid]
- signal change ([1]; FIG. 4B): no signal change

Structure (SMILES): COC(=O)[C@H](Cc1ccccc1)NC(=O)[C@@H](N)CC(=O)O [aspartame] (H-Asp-Phe-OMe)
- fit of sensor signals to the hill equation model [2]: comply with the hill equation model
- sensitivity as a working substance relative to sucrose ([2]; compared with sucrose): more sensitive

Structure (SMILES): O=C(CO)[C@@H](O)[C@H](O)[C@H](O)CO [fructose]
- fit of sensor signals to the hill equation model [2]: comply with the hill equation model
